Each block holds one compound with its values, some of them ahead of it.
How the values were obtained:
[1] = molecular target: CDK7/Cyclin H/MNAT1 (Homo sapiens) (UniProt P51946+P50613+P51948); test: Selectivity interaction (Adapta Assay) EUB0001632a CDK7; format: protein-complex assay; settings: at 10 µM
[2] = molecular target: Platelet-derived growth factor receptor alpha (Homo sapiens, UniProt P16234); test: Selectivity interaction (Kinase panel (33PanQinase(R) Activity Assay)) EUB0000877a PDGFRA
[3] = molecular target: Ribosomal protein S6 kinase alpha-5 (Homo sapiens) (UniProt O75582); test: Selectivity interaction (KinomeScan (DiscoverX)) EUB0001049a RPS6KA5; settings: at 1 µM
[4] = molecular target: T1, Serine/threonine-protein kinase Nek1 (Homo sapiens) (UniProt Q96PY6); test: Selectivity interaction (Kinase panel (DSF assay)) EUB0001558a NEK1
T1 sequence (whole entry): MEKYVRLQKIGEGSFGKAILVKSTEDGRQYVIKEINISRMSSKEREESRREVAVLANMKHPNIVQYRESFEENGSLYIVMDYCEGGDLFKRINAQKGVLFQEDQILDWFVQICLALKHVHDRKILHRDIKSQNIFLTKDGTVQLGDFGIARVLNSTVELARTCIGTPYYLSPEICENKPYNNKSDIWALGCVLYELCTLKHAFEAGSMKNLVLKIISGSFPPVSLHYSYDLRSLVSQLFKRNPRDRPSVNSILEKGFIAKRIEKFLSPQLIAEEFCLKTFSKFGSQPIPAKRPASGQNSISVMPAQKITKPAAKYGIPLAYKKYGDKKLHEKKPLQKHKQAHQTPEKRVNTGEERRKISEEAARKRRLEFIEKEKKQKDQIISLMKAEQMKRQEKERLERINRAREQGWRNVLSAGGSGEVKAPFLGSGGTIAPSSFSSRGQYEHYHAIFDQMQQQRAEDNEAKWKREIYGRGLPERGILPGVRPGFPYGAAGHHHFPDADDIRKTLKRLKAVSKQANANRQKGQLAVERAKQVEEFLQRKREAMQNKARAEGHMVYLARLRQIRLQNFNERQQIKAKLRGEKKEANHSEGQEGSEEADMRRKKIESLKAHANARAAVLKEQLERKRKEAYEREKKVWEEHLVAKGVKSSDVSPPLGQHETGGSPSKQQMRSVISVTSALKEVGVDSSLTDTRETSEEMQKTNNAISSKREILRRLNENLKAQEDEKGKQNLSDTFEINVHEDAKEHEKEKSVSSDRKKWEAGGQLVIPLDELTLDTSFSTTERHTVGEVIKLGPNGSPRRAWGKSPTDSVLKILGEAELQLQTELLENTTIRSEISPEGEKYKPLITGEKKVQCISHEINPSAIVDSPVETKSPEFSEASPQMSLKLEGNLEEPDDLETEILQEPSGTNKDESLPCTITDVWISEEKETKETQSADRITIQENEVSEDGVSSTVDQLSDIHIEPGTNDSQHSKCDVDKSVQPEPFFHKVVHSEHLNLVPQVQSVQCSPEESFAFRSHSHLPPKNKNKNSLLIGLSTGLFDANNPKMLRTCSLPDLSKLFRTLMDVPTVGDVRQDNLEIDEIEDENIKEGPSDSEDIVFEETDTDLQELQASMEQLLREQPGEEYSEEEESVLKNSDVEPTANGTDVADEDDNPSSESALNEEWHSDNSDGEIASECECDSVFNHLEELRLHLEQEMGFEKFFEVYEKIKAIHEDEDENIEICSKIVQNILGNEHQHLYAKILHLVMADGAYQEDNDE

[5] = molecular target: T2, Serine/threonine-protein kinase D2 (Homo sapiens) (UniProt Q9BZL6); test: Selectivity interaction (KinomeScan (DiscoverX)) EUB0001079a PRKD2; settings: at 1 µM
T2 sequence (whole entry): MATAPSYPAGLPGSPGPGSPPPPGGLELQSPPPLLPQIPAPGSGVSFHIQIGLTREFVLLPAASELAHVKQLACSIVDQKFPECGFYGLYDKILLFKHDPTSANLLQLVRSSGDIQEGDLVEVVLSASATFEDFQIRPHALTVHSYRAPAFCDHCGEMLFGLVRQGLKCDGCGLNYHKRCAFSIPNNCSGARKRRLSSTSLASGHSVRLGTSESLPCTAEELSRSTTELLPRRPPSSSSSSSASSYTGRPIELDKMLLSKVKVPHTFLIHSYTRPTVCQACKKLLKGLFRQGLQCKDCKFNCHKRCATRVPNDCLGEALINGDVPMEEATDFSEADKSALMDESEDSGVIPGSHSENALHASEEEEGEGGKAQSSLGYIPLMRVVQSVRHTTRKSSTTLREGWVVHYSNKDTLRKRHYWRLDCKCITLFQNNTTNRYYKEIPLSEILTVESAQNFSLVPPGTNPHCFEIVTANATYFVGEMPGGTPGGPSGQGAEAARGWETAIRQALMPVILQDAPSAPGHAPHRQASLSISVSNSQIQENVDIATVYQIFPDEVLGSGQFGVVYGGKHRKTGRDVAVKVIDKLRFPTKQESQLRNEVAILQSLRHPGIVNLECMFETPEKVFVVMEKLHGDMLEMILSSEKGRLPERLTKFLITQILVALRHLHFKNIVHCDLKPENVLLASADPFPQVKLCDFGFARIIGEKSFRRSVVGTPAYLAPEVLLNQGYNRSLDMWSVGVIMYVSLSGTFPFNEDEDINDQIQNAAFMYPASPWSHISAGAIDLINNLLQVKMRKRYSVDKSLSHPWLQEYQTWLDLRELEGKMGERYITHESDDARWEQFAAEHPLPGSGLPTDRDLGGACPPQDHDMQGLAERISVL

[6] = test system: Tyrosine-protein kinase ABL1 (Homo sapiens), P00519 [H396P]; test: Selectivity interaction (KinomeScan (DiscoverX)) EUB0000618a ABL1; settings: at 10 µM
[7] = molecular target: Serine/threonine-protein kinase OSR1 (Homo sapiens) (UniProt O95747); test: Selectivity interaction (ActivX KiNativ screen (ex vivo kinase selectivity in human PBMCs)) EUB0001619a OXSR1; format: cell-based; settings: PBMC, at 1 µM
Sequence of Serine/threonine-protein kinase OSR1 (Homo sapiens) (O95747 2-527 limits assumed): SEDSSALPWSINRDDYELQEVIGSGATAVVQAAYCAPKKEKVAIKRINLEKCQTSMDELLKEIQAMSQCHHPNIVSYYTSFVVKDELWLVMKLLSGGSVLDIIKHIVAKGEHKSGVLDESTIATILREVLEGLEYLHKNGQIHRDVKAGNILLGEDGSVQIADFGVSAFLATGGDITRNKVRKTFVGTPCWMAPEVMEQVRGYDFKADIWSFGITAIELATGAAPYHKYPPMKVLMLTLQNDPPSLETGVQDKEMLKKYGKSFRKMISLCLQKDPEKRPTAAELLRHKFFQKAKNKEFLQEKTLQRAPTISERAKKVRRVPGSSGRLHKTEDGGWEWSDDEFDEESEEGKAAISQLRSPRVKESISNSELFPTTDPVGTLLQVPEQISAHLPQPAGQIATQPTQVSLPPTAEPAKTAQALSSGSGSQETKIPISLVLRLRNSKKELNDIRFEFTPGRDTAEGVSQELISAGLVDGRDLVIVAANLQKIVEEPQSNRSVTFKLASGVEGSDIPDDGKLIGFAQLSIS

Sequence of Ribosomal protein S6 kinase alpha-5 (Homo sapiens) (O75582 whole entry, looked up): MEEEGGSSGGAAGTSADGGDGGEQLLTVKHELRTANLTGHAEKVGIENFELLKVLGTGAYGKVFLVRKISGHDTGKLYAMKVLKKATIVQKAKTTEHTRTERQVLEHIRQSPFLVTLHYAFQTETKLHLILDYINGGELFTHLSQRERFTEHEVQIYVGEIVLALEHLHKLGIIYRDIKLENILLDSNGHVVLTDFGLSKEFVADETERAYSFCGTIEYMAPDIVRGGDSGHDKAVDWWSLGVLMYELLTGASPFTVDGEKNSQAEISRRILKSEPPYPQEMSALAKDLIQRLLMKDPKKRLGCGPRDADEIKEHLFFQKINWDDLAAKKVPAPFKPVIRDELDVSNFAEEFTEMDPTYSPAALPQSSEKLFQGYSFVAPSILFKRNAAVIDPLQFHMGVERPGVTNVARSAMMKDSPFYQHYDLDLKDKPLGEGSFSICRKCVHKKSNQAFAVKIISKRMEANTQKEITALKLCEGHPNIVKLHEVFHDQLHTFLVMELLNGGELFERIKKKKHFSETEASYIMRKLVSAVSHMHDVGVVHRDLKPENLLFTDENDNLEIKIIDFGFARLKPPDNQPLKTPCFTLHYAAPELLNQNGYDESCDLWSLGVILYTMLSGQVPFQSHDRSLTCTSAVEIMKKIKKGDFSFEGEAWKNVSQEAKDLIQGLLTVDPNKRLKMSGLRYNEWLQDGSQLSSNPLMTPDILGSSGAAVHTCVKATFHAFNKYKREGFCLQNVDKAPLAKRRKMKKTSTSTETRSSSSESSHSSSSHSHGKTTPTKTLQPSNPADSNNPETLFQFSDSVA
Sequence of Platelet-derived growth factor receptor alpha (P16234 whole entry): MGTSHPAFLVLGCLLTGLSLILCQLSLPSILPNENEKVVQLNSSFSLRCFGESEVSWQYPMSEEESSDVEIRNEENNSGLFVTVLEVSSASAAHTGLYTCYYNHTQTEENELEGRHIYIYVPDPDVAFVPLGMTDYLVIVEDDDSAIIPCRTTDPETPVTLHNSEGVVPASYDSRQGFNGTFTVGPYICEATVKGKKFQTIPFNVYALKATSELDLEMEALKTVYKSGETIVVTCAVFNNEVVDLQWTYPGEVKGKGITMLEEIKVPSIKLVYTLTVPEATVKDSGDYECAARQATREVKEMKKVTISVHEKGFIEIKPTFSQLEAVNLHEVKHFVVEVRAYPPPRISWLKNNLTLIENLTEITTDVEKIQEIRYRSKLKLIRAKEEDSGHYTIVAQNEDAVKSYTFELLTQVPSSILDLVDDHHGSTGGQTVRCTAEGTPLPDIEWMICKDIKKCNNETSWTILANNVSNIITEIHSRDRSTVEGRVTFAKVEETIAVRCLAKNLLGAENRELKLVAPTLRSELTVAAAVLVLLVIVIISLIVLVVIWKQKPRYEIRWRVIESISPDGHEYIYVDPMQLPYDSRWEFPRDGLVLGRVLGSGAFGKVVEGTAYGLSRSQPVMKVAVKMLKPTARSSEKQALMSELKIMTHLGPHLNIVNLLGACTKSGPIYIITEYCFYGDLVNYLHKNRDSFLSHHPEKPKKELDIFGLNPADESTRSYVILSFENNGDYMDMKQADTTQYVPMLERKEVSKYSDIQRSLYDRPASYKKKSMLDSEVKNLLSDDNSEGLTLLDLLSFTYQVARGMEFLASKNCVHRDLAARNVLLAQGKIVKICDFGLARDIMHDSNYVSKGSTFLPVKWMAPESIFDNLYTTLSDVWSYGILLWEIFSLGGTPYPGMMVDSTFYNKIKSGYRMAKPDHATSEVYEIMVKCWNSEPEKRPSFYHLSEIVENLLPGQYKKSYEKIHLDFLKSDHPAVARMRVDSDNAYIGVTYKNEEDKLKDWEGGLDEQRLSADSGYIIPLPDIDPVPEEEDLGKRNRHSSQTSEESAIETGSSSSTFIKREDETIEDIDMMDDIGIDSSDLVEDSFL

% of inhibition [1]: -13.5%
SMILES: Cn1cc(-n2cnc3c(NCc4nc5cc(Cl)c(Cl)cc5[nH]4)nc(N4CCOCC4)nc32)cn1

IC50 [2]: > 10 µM
SMILES: CCC(=O)N1CC[C@H](Nc2ncnc3c2CN(c2cnc(OC)c(C(F)(F)F)c2)CC3)C1 [LENIOLISIB]

SMILES: COc1cc(Nc2nc(C)cc(-c3cnn4nc(OC)ccc34)n2)cc(C(F)(F)F)c1
% of control [3]: 95%

SMILES: CC(C)(O)[C@H](F)CN1Cc2cc(NC(=O)c3cnn4cccnc34)c(N3CCOCC3)cc2C1=O
dTM [4]: -1.2 K

SMILES: Nc1cnc(N2CCc3cc(S(=O)(=O)Nc4c(F)cc(Cl)cc4F)cc(N4CCCC4=O)c32)nc1 [TP-020n]
% of control [5]: 100%

SMILES: O[C@H]1CC[C@H](Nc2ncc3nc(Nc4c(F)cc(F)cc4F)n([C@H]4CCOC4)c3n2)CC1
% of control [6]: 31%

SMILES: N#Cc1cccc(-c2c[nH]c3ncnc(N4CCOCC4)c23)c1
% of inhibition [7]: -55%

Source: ChEMBL document CHEMBL5465560, “Selectivity Literature for EUbOPEN Chemogenomic Library” (2024)
